According to US12667545B2, “Lyophilized compositions of phenobarbital sodium salt” (Nivagen Pharmaceuticals, Inc., priority 2019, dated 2026):

Experiments:
[1] = cited from earlier work
[2] = X-Ray Powder Diffraction (XRPD); assay type: physicochemical; details: FIGS. 5A-5D
Protocol: X-Ray Powder Diffraction. With reference to FIGS. 5A-5D, XRPD was performed using the Rigaku Smart-Lab X-ray diffraction system configured for reflection Bragg-Brentano geometry using a line source X-ray beam. The X-ray source is a Cu Long Fine Focus tube that was operated at 40 kV and 44 mA. That source provides an incident beam profile at the sample that changes from a narrow line at high angles to a broad rectangle at low angles. Beam conditioning slits were used on the line X-ray source to ensure that the maximum beam size is less than 10 mm both along the line and normal to the line. The Bragg-Brentano geometry is a para-focusing geometry controlled by passive divergence and receiving slits with the sample itself acting as the focusing component for the optics. The inherent resolution of Bragg-Brentano geometry is governed in part by the diffractometer radius and the width of the receiving slit used. Typically, the Rigaku Smart-Lab is operated to give peak widths of 0.1° 2θ or less. The axial divergence of the X-ray beam is controlled by 5.0-degree Soller slits in both the incident and diffracted beam paths. […] The samples were analyzed from 2 to 40° 2θ using a continuous scan of 6° 2θ per minute with an effective step size of 0.02° 2θ.

Row | Structure (SMILES) | liver enzyme induction ([1]; Nayyar et al., 2012) | serum calcium and folate ([1]; patients treated with Pheneturide) | solid form by XRPD [2]
1 | CCC(C(=O)NC(N)=O)c1ccccc1 (stereo not drawn) [Pheneturide, phenylethylacetylurea] | potent liver enzyme inducer | low levels | –
2 | CCC1(c2ccccc2)C(=O)N=C([O-])NC1=O.[Na+] (stereo not drawn) [USP grade P API, sodium 5-ethyl-4,6-dioxo-5-phenyl-1H-pyrimidin-2-olate] | – | – | polymorphous
